# Measurements reported in patent publication US20260007681A1, “INDOLE DERIVATIVES AS ESTROGEN RECEPTOR DEGRADERS” (REGENTS OF THE UNIVERSITY OF MICHIGAN, priority 2022, published 2026).
# Molecular target: ER (Homo sapiens (Human), UniProt P03372)
# Assay: Western blot analysis (Compounds B1-B278)
# Assay type: cell-based
# Conditions: ER degradation by traditional Western blot; DC50 classes
# Method in brief: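 Relative target-protein levels come from densitometry of immunoblots, normalized to GAPDH. Lysates from treated cells were prepared in RIPA buffer (pH 7.6) containing protease inhibitors, and equal protein amounts, checked by BCA, were separated on 10% gels and blotted onto PVDF.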
# Sequence of ER (P03372 whole entry): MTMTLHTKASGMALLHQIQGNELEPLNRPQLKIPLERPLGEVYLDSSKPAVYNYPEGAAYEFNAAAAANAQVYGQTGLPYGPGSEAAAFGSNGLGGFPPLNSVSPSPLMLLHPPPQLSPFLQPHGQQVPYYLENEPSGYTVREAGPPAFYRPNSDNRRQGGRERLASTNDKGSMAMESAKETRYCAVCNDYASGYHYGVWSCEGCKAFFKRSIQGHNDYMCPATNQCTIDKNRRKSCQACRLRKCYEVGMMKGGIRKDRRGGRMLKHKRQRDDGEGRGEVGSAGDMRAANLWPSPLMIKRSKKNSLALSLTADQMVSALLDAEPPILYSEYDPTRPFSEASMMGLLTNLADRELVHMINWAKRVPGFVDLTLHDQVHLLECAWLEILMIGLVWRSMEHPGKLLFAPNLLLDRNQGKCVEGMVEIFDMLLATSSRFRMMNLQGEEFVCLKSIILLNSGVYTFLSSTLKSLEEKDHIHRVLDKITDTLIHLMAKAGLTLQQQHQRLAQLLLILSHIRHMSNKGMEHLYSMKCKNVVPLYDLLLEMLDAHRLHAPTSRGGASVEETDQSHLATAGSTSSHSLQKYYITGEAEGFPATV
row,Traditional Western Degradation Potency,SMILES
1,C (“C”: >100 nM),"C[C@@H]1Cc2c([nH]c3ccccc23)[C@@H](c2ccc(C3CCC(C(=O)N4CCC(N5Cc6cc7c(cc6C5)C(=O)N(C5CCC(=O)NC5=O)C7=O)CC4)CC3)nc2)N1CC(F)F (stereo partly drawn) [Compound B238, 6-(1-(4-(5-((1R,3R)-2-(2,2-difluoroethyl)-3-methyl-2,3,4,9-tetrahydro-1H-pyrido[3,4-b]indol-1-yl)pyridin-2-yl)cyclohexane-1-carbonyl)piperidin-4-yl)-2-(2,6-dioxopiperidin-3-yl)-6,7-dihydropyrrolo[3,4-f]isoindole-1,3(2H,5H)-dione]"
2,B (“B”: 10-100 nM),"C[C@@H]1Cc2c([nH]c3ccccc23)[C@@H](c2c(F)cc(N3CCC(C(=O)N4CCC(CN5Cc6cc7c(cc6C5)C(=O)N(C5CCC(=O)NC5=O)C7=O)CC4)CC3)cc2F)N1CC(F)F (stereo partly drawn) [Compound B53, 6-((1-(1-(4-((1R,3R)-2-(2,2-difluoroethyl)-3-methyl-2,3,4,9-tetrahydro-1H-pyrido[3,4-b]indol-1-yl)-3,5-difluorophenyl)piperidine-4-carbonyl)piperidin-4-yl)methyl)-2-(2,6-dioxopiperidin-3-yl)-6,7-dihydropyrrolo[3,4-f]isoindole-1,3(2H,5H)-dione]"
3,B (“B”: 10-100 nM),"C[C@@H]1Cc2c([nH]c3ccccc23)[C@@H](c2c(F)cc(N3CCC4(CCN(C(=O)CN5Cc6cc7c(cc6C5)C(=O)N(C5CCC(=O)NC5=O)C7=O)C4)C3)cc2F)N1CC(F)F (stereo partly drawn) [Compound B22, 6-(2-(7-(4-((1R,3R)-2-(2,2-difluoroethyl)-3-methyl-2,3,4,9-tetrahydro-1H-pyrido[3,4-b]indol-1-yl)-3,5-difluorophenyl)-2,7-diazaspiro[4.4]nonan-2-yl)-2-oxoethyl)-2-(2,6-dioxopiperidin-3-yl)-6,7-dihydropyrrolo[3,4-f]isoindole-1,3(2H,5H)-dione]"
4,C (“C”: >100 nM),"C[C@@H]1Cc2c([nH]c3ccccc23)[C@@H](c2c(F)cc(N3CCC(CN4CC(C(=O)N5Cc6cc7c(cc6C5)C(=O)N(C5CCC(=O)NC5=O)C7=O)C4)CC3)cc2F)N1CC(F)F (stereo partly drawn) [Compound B212, 6-(1-((1-(4-((1R,3R)-2-(2,2-difluoroethyl)-3-methyl-2,3,4,9-tetrahydro-1H-pyrido[3,4-b]indol-1-yl)-3,5-difluorophenyl)piperidin-4-yl)methyl)azetidine-3-carbonyl)-2-(2,6-dioxopiperidin-3-yl)-6,7-dihydropyrrolo[3,4-f]isoindole-1,3(2H,5H)-dione]"
5,B (“B”: 10-100 nM),"C[C@@H]1Cc2c([nH]c3ccccc23)[C@@H](c2c(F)cc(N3CCC4(CC3)CC(C(=O)N3CCC(CN5Cc6cc7c(cc6C5)C(=O)N(C5CCC(=O)NC5=O)C7=O)CC3)C4)cc2F)N1CC(F)F (stereo partly drawn) [Compound B39, 6-((1-(7-(4-((1R,3R)-2-(2,2-difluoroethyl)-3-methyl-2,3,4,9-tetrahydro-1H-pyrido[3,4-b]indol-1-yl)-3,5-difluorophenyl)-7-azaspiro[3.5]nonane-2-carbonyl)piperidin-4-yl)methyl)-2-(2,6-dioxopiperidin-3-yl)-6,7-dihydropyrrolo[3,4-f]isoindole-1,3(2H,5H)-dione]"
6,B (“B”: 10-100 nM),"C[C@@H]1Cc2c([nH]c3ccccc23)[C@@H](c2c(F)cc(N3CCN(CCN4Cc5cc6c(cc5C4)C(=O)N(C4CCC(=O)NC4=O)C6)CC3)cc2F)N1CC(F)F (stereo partly drawn) [Compound B5, 3-(6-(2-(4-(4-((1R,3R)-2-(2,2-difluoroethyl)-3-methyl-2,3,4,9-tetrahydro-1H-pyrido[3,4-b]indol-1-yl)-3,5-difluorophenyl)piperazin-1-yl)ethyl)-1-oxo-3,5,6,7-tetrahydropyrrolo[3,4-f]isoindol-2(1H)-yl)piperidine-2,6-dione]"
7,C (“C”: >100 nM),"C[C@@H]1Cc2c([nH]c3ccccc23)[C@@H](c2c(F)cc(N3CCC(N4CCC(CN5Cc6cc7c(cc6C5)C(=O)N(C5CCC(=O)NC5=O)C7=O)CC4)C3)cc2F)N1CC(F)F (stereo partly drawn) [Compound B64, 6-((1-(1-(4-((1R,3R)-2-(2,2-difluoroethyl)-3-methyl-2,3,4,9-tetrahydro-1H-pyrido[3,4-b]indol-1-yl)-3,5-difluorophenyl)pyrrolidin-3-yl)piperidin-4-yl)methyl)-2-(2,6-dioxopiperidin-3-yl)-6,7-dihydropyrrolo[3,4-f]isoindole-1,3(2H,5H)-dione]"
8,B (“B”: 10-100 nM),"C[C@@H]1Cc2c([nH]c3ccccc23)[C@@H](c2ccc(C3=CCC(C(=O)N4CCC(N5Cc6cc7c(cc6C5)C(=O)N(C5CCC(=O)NC5=O)C7=O)CC4)CC3)cc2F)N1CC(C)(C)F (stereo partly drawn) [Compound B245, 2-(2,6-dioxopiperidin-3-yl)-6-(1-(3′-fluoro-4′-((1R,3R)-2-(2-fluoro-2-methylpropyl)-3-methyl-2,3,4,9-tetrahydro-1H-pyrido[3,4-b]indol-1-yl)-2,3,4,5-tetrahydro-[1,1′-biphenyl]-4-carbonyl)piperidin-4-yl)-6,7-dihydropyrrolo[3,4-f]isoindole-1,3(2H,5H)-dione]"
9,C (“C”: >100 nM),"C[C@@H]1Cc2c([nH]c3ccccc23)[C@@H](c2c(F)cc(C(=O)N3CCC4(CC3)CC(CN3Cc5cc6c(cc5C3)C(=O)N(C3CCC(=O)NC3=O)C6=O)C4)cc2F)N1CC(F)F (stereo partly drawn) [Compound B97, 6-((7-(4-((1R,3R)-2-(2,2-difluoroethyl)-3-methyl-2,3,4,9-tetrahydro-1H-pyrido[3,4-b]indol-1-yl)-3,5-difluorobenzoyl)-7-azaspiro[3.5]nonan-2-yl)methyl)-2-(2,6-dioxopiperidin-3-yl)-6,7-dihydropyrrolo[3,4-f]isoindole-1,3(2H,5H)-dione]"
10,B (“B”: 10-100 nM),"C[C@@H]1Cc2c([nH]c3ccccc23)[C@@H](c2c(F)cc(-c3ccc(C(=O)N4CCC(N5Cc6cc7c(cc6C5)C(=O)N(C5CCC(=O)NC5=O)C7=O)CC4)nn3)cc2F)N1CC(F)F (stereo partly drawn) [Compound B91, 6-(1-(6-(4-((1R,3R)-2-(2,2-difluoroethyl)-3-methyl-2,3,4,9-tetrahydro-1H-pyrido[3,4-b]indol-1-yl)-3,5-difluorophenyl)pyridazine-3-carbonyl)piperidin-4-yl)-2-(2,6-dioxopiperidin-3-yl)-6,7-dihydropyrrolo[3,4-f]isoindole-1,3(2H,5H)-dione]"
11,B (“B”: 10-100 nM),"C[C@@H]1Cc2c([nH]c3ccccc23)[C@@H](c2c(F)cc(N3CCC(C(=O)N4CCC(N5Cc6cc7c(cc6C5)C(=O)N(C5CCC(=O)NC5=O)C7=O)CC4)CC3)cc2F)N1CC(F)(F)F (stereo partly drawn) [Compound B201, 6-(1-(1-(3,5-difluoro-4-((1R,3R)-3-methyl-2-(2,2,2-trifluoroethyl)-2,3,4,9-tetrahydro-1H-pyrido[3,4-b]indol-1-yl)phenyl)piperidine-4-carbonyl)piperidin-4-yl)-2-(2,6-dioxopiperidin-3-yl)-6,7-dihydropyrrolo[3,4-f]isoindole-1,3(2H,5H)-dione]"
12,A (“A”: <10 nM),"C[C@@H]1Cc2c([nH]c3ccccc23)[C@@H](c2c(F)cc(N3CC4(CCN(C(=O)CN5Cc6cc7c(cc6C5)C(=O)N(C5CCC(=O)NC5=O)C7)C4)C3)cc2F)N1CC(F)F (stereo partly drawn) [Compound B9, 3-(6-(2-(2-(4-((1R,3R)-2-(2,2-difluoroethyl)-3-methyl-2,3,4,9-tetrahydro-1H-pyrido[3,4-b]indol-1-yl)-3,5-difluorophenyl)-2,6-diazaspiro[3.4]octan-6-yl)-2-oxoethyl)-1-oxo-3,5,6,7-tetrahydropyrrolo[3,4-f]isoindol-2(1H)-yl)piperidine-2,6-dione]"
13,B (“B”: 10-100 nM),"C[C@@H]1Cc2c([nH]c3ccccc23)[C@@H](c2c(F)cc(N3CCC(CN4CCC5(CC4)CC(N4Cc6cc7c(cc6C4)C(=O)N(C4CCC(=O)NC4=O)C7=O)C5)CC3)cc2F)N1CC(F)F (stereo partly drawn) [Compound B69, 6-(7-((1-(4-((1R,3R)-2-(2,2-difluoroethyl)-3-methyl-2,3,4,9-tetrahydro-1H-pyrido[3,4-b]indol-1-yl)-3,5-difluorophenyl)piperidin-4-yl)methyl)-7-azaspiro[3.5]nonan-2-yl)-2-(2,6-dioxopiperidin-3-yl)-6,7-dihydropyrrolo[3,4-f]isoindole-1,3(2H,5H)-dione]"
14,B (“B”: 10-100 nM),"C[C@@H]1Cc2c([nH]c3ccccc23)[C@@H](c2c(F)cc(N3CCC(CN4CCC5(CCC(N6Cc7cc8c(cc7C6)C(=O)N(C6CCC(=O)NC6=O)C8=O)C5)CC4)CC3)cc2F)N1CC(F)F (stereo partly drawn) [Compound B70, 6-(8-((1-(4-((1R,3R)-2-(2,2-difluoroethyl)-3-methyl-2,3,4,9-tetrahydro-1H-pyrido[3,4-b]indol-1-yl)-3,5-difluorophenyl)piperidin-4-yl)methyl)-8-azaspiro[4.5]decan-2-yl)-2-(2,6-dioxopiperidin-3-yl)-6,7-dihydropyrrolo[3,4-f]isoindole-1,3(2H,5H)-dione]"
15,C (“C”: >100 nM),"C[C@@H]1Cc2c([nH]c3ccccc23)[C@@H](c2c(F)cc(N3CCC4(CC3)CN(CC3Cc5cc6c(cc5C3)C(=O)N(C3CCC(=O)NC3=O)C6=O)C4)cc2F)N1CC(F)F (stereo partly drawn) [Compound B205, 6-((7-(4-((1R,3R)-2-(2,2-difluoroethyl)-3-methyl-2,3,4,9-tetrahydro-1H-pyrido[3,4-b]indol-1-yl)-3,5-difluorophenyl)-2,7-diazaspiro[3.5]nonan-2-yl)methyl)-2-(2,6-dioxopiperidin-3-yl)-6,7-dihydrocyclopenta[f]isoindole-1,3(2H,5H)-dione]"
16,A (“A”: <10 nM),"C[C@@H]1Cc2c([nH]c3ccccc23)[C@@H](c2c(F)cc(N3CCC4(CCN(C(=O)CN5Cc6cc7c(cc6C5)C(=O)N(C5CCC(=O)NC5=O)C7=O)CC4)CC3)cc2F)N1CC(C)(F)F (stereo partly drawn) [Compound B215, 6-(2-(9-(4-((1R,3R)-2-(2,2-difluoropropyl)-3-methyl-2,3,4,9-tetrahydro-1H-pyrido[3,4-b]indol-1-yl)-3,5-difluorophenyl)-3,9-diazaspiro[5.5]undecan-3-yl)-2-oxoethyl)-2-(2,6-dioxopiperidin-3-yl)-6,7-dihydropyrrolo[3,4-f]isoindole-1,3(2H,5H)-dione]"
